pIC50: −log10 of the molar value.
Legend:
HUVEC [1] = assay: Cytotoxicity against HUVEC assessed as reduction in cell viability measured after 72 hrs by MTT assay; type: cell-based; conditions: Homo sapiens
THP-1 [2] = assay: Cytotoxicity against human THP-1 cells assessed as reduction in cell viability measured after 24 hrs by MTT assay; type: functional, cell-based; conditions: THP-1, 24 h
K562 [3] = assay: Cytotoxicity against human K562 cells assessed as reduction in cell viability measured after 72 hrs by MTT assay; type: functional, cell-based; conditions: K562, 72 h
THP-1 [4] = assay: Cytotoxicity against human THP-1 cells assessed as reduction in cell viability measured after 72 hrs by MTT assay; type: functional, cell-based; conditions: THP-1, 72 h
HUVEC [5] = assay: Cytotoxicity against HUVEC assessed as reduction in cell viability measured after 24 hrs by MTT assay; type: cell-based; conditions: Homo sapiens
K562 [6] = assay: Cytotoxicity against human K562 cells assessed as reduction in cell viability measured after 24 hrs by MTT assay; type: functional, cell-based; conditions: K562, 24 h
MCF7 [7] = assay: Cytotoxicity against human MCF7 cells assessed as reduction in cell viability measured after 72 hrs by MTT assay; type: functional, cell-based; conditions: MCF7, 72 h
K562 [8] = assay: Cell cycle arrest in human K562 cells assessed as accumulation at S phase at 100 uM measured after 24 hrs by propidium iodide staining based flow cytometry analysis (reference value: 22.8+/- 0.5%); type: functional
MCF7 [9] = assay: Cytotoxicity against human MCF7 cells assessed as reduction in cell viability measured after 24 hrs by MTT assay; type: functional, cell-based; conditions: MCF7, 24 h
K562 [10] = assay: Cell cycle arrest in human K562 cells assessed as accumulation at G2/M phase at 100 uM measured after 24 hrs by propidium iodide staining based flow cytometry analysis (reference value: 25.6+/- 0.7%); type: functional
K562 [11] = assay: Cell cycle arrest in human K562 cells assessed as accumulation at G1 phase at 100 uM measured after 24 hrs by propidium iodide staining based flow cytometry analysis (reference value: 43.5+/- 0.3%); type: functional
K562 [12] = assay: Cell cycle arrest in human K562 cells assessed as accumulation at sub G1 phase at 100 uM measured after 24 hrs by propidium iodide staining based flow cytometry analysis (reference value: 6.5+/- 0.7%); type: functional
K562 [13] = assay: Cell cycle arrest in human K562 cells assessed as accumulation at S phase at 50 uM measured after 24 hrs by propidium iodide staining based flow cytometry analysis (reference value: 22.8+/- 0.5%); type: functional
K562 [14] = assay: Induction of apoptosis in human K562 cells at 100 uM after 24 hrs by PI staining based flow cytometric analysis (reference value: 0.1+/- 0.05%); type: functional
K562 [15] = assay: Induction of autophagy in human K562 cells at 50 uM after 24 hrs (reference value: 3.9+/- 1.1%); type: functional
K562 [16] = assay: Cell cycle arrest in human K562 cells assessed as accumulation at sub G1 phase at 50 uM measured after 24 hrs by propidium iodide staining based flow cytometry analysis (reference value: 6.5+/- 0.7%); type: functional
K562 [17] = assay: Induction of apoptosis in human K562 cells at 50 uM after 24 hrs by PI staining based flow cytometric analysis (reference value: 0.1+/- 0.05%); type: functional
K562 [18] = assay: Induction of autophagy in human K562 cells at 100 uM after 24 hrs (reference value: 3.9+/- 1.1%); type: functional
K562 [19] = assay: Cell cycle arrest in human K562 cells assessed as accumulation at G2/M phase at 50 uM measured after 24 hrs by propidium iodide staining based flow cytometry analysis (reference value: 25.6+/- 0.7%); type: functional
K562 [20] = assay: Cell cycle arrest in human K562 cells assessed as accumulation at G1 phase at 50 uM measured after 24 hrs by propidium iodide staining based flow cytometry analysis (reference value: 43.5+/- 0.3%); type: functional
K562 [21] = assay: Induction of ROS production in human K562 cells at 100 uM incubated for 24 hrs relative to control; type: functional
K562 [22] = assay: Induction of apoptosis in human K562 cells at 25 uM after 24 hrs by PI staining based flow cytometric analysis (reference value: 0.1+/- 0.05%); type: functional
K562 [23] = assay: Cell cycle arrest in human K562 cells assessed as accumulation at G1 phase at 25 uM measured after 24 hrs by propidium iodide staining based flow cytometry analysis (reference value: 43.5+/- 0.3%); type: functional
K562 [24] = assay: Induction of autophagy in human K562 cells at 25 uM after 24 hrs (reference value: 3.9+/- 1.1%); type: functional
K562 [25] = assay: Cell cycle arrest in human K562 cells assessed as accumulation at S phase at 25 uM measured after 24 hrs by propidium iodide staining based flow cytometry analysis (reference value: 22.8+/- 0.5%); type: functional
K562 [26] = assay: Cell cycle arrest in human K562 cells assessed as accumulation at sub G1 phase at 25 uM measured after 24 hrs by propidium iodide staining based flow cytometry analysis (reference value: 6.5+/- 0.7%); type: functional
K562 [27] = assay: Cell cycle arrest in human K562 cells assessed as accumulation at G2/M phase at 25 uM measured after 24 hrs by propidium iodide staining based flow cytometry analysis (reference value: 25.6+/- 0.7%); type: functional

SMILES | pIC50 (HUVEC [1]) | pIC50 (THP-1 [2]) | pIC50 (K562 [3]) | pIC50 (THP-1 [4]) | pIC50 (HUVEC [5]) | pIC50 (K562 [6]) | pIC50 (MCF7 [7]) | pIC50 (MCF7 [9]) | other results
COc1ccc(/C=C2\CC[C@H]3C(C)(C)CCC[C@]3(C)[C@H]2CCC(C)CC(=O)O)cc1 (some centres not stated) | < 3.70 | < 3.70 | < 3.70 | < 3.70 | < 3.70 | < 3.70 | – | – | –
COc1cc([C@@H]2c3cc4c(cc3[C@@H](O[C@@H]3O[C@@H]5CO[C@@H](C)O[C@H]5[C@H](O)[C@H]3O)[C@H]3COC(=O)[C@H]23)OCO4)cc(OC)c1O [ETOPOSIDE] | 4.54 | 4.23 | 4.18 | > 5.20 | < 3.70 | < 3.70 | 4.30 | < 4.00 | Activity (K562 [8]): 26%; Activity (K562 [10]): 30.4%; Activity (K562 [11]): 20.6%; Activity (K562 [12]): 13%
CC(CC[C@H]1/C(=C/c2ccc(F)cc2)CC[C@H]2C(C)(C)CCC[C@]12C)CC(=O)O (some centres not stated) | < 3.70 | < 3.70 | < 3.70 | < 3.70 | < 3.70 | < 3.70 | – | – | –
CC(CC[C@H]1/C(=C/c2ccc(Br)cc2)CC[C@H]2C(C)(C)CCC[C@]12C)CC(=O)O (some centres not stated) | < 3.70 | < 3.70 | < 3.70 | < 3.70 | < 3.70 | < 3.70 | – | – | –
CC(CC[C@H]1/C(=C/c2ccc(Cl)cc2)CC[C@H]2C(C)(C)CCC[C@]12C)CC(=O)O (some centres not stated) | < 3.70 | < 3.70 | < 3.70 | < 3.70 | < 3.70 | < 3.70 | – | – | –
C=C1CC[C@H]2C(C)(C)CCC[C@]2(C)[C@H]1CCC(C)CC(=O)OC (some centres not stated) | < 3.70 | < 3.70 | < 3.70 | < 3.70 | < 3.70 | < 3.70 | < 3.70 | < 3.70 | –
CC(CC[C@H]1/C(=C/c2ccc([N+](=O)[O-])cc2)CC[C@H]2C(C)(C)CCC[C@]12C)CC(=O)O (some centres not stated) | 3.71 | 3.74 | 3.77 | 4.17 | < 3.70 | < 3.70 | 3.91 | < 3.70 | –
C=C1CC[C@H]2C(C)(C)CCC[C@]2(C)[C@H]1CCC(C)CC(=O)O (some centres not stated) | 3.77 | < 3.70 | < 3.70 | 3.88 | < 3.70 | < 3.70 | < 3.70 | < 3.70 | –
Cc1ccc(/C=C2\CC[C@H]3C(C)(C)CCC[C@]3(C)[C@H]2CCC(C)CC(=O)O)cc1 (some centres not stated) | < 3.70 | < 3.70 | < 3.70 | 4.04 | < 3.70 | < 3.70 | < 3.70 | < 3.70 | –
COc1ccc(/C=C2\CC[C@H]3C(C)(C)CCC[C@]3(C)[C@H]2CCC(C)CC(=O)O)cc1OC (some centres not stated) | < 3.70 | 3.75 | < 3.70 | 3.97 | < 3.70 | < 3.70 | < 3.70 | < 3.70 | –
CC(CC[C@H]1/C(=C/c2ccc(I)cc2)CC[C@H]2C(C)(C)CCC[C@]12C)CC(=O)O (some centres not stated) | 4.00 | 4.17 | 4.26 | 4.48 | 3.71 | 4.01 | 4.30 | 4.05 | Activity (K562 [13]): 23.2%; Activity (K562 [14]): 1.1%; Activity (K562 [15]): 14.6%; Activity (K562 [16]): 8.5%; Activity (K562 [17]): 0.4%; Activity (K562 [18]): 25.2%; Activity (K562 [8]): 18.2%; Activity (K562 [19]): 21.9%; Activity (K562 [20]): 43.3%; Activity (K562 [21]): 17.7%; Activity (K562 [22]): 2.4%; Activity (K562 [23]): 44.5%; Activity (K562 [10]): 17.1%; Activity (K562 [24]): 7.3%; Activity (K562 [25]): 24.4%; Activity (K562 [11]): 27.5%; Activity (K562 [26]): 7.2%; Activity (K562 [27]): 24.1%; Activity (K562 [12]): 35.8%
O=c1[nH]cc(F)c(=O)[nH]1 [FLUOROURACIL] | 4.02 | – | – | – | < 3.70 | – | 3.78 | < 3.70 | –

Reference: ChEMBL document CHEMBL5030550, “A late-stage diversification via Heck-Matsuda arylation: Straightforward synthesis and cytotoxic/antiproliferative profiling of novel aryl-labdane-type derivatives” (Bioorg Med Chem Lett, 2021)
